{"source": "patent US20250262209A1", "about": "“TREATMENT OF GASTROINTESTINAL DISEASES” (Aclipse Two, Inc., priority 2022, published 2025)", "key": {"[1]": {"test_system": "TNF-α, IL-10, CCL2, and IL-1β gene expression in colon", "assay": "QT-PCR gene expression in colon of the DSS-induced IBD model", "format": "in vivo, mice", "procedure": "Animals were euthanized by CO2 at the end of study. Colon length and colon weight (cecum is not included) were recorded, and macroscopic changes were scored based on Table 2. The colon was cleaned using saline, and all feces were removed before weight measurement. The middle part of colon was collected in cassette and fixed in 10% neutral buffered formalin (NBF) for H&E and PAS staining. For left colon, mucosal from colon surface was removed and then snap frozen in liquid nitrogen and store at −80° C. for QT-PCR analysis of TNF-α, IL-10, CCL2, and IL-1β. QT-PCR primers were purchased from Sangon Biotech Co., Ltd.\nTreatment of Tissue before RNA Extraction are as follows. • (a) Remove mucosal from colon surface. Cut colon tissue into small pieces on ice. • (b) Weight out the tissue no more than 30 mg and transfer the tissue into a lysing matrix D tube. Totally 700 µL Trizol was added in the tissue and lysing matrix D immediately. • (c) Put the lysing matrix D tubes which contain tissue, Lysing matrix, and 700 μL Trizol into the FastPrep™-24 Sample Preparation System. • (d) Set at speed 6 and grind for 2 min • (e) 140 μL chloroform was added into the tubes, shake the tubes vigorously by vortex for 15 seconds. Incubate at room temperature for 2 min. • (f) 12000 rpm centrifuge for 10 min at 4° C., • (g) Pipet the supernatant to 96 well 2.2 mL deep well plate\nRNA Sample Preparation procedure is as follows. • (a) 600 μL Binding Buffer was added into column 1 and 7 • (b) 600 μL DNase Stop Buffer was added into column 2 I 8 • (c) 600 μL Wash Buffer was added into column 3, 4 and 9, 10 • (d) 100 μL Elution Buffer was added into column 5Id 11 • (e) 190 μL DEPC water and 10 μL MagaBio® Reagent was added into column 6 and 12 • (f) Transfer 300 μL of the colorless, upper phase containing the RNA to column 1 and 7 • (g) Put the test plate in nucleic acid purifier • (h) Set the instrument as below in Table 3.\nThe elution was transferred into a clean nuclease-free centrifuge tube and the RNA sample was store at −80° C.\nTo use the Takara Prime Script™ Reverse Transcription System, Mix and briefly centrifuge each component before use. Combine the following component volume as in Table 4.\n• (a) Store on ice until reverse transcription mix is added. Centrifuge 10 seconds in a micro-centrifuge. Heat in a 42° C. heat block for 2 minutes, 4° C. immediately chill in ice water for at least 5 minutes. • (b) Prepare the reverse transcription reaction mix, 10 μL for each cDNA reaction. Combine on ice, in the order listed. Component volume of step b) (Table 5).\n• (c) Combine 20 μL of reverse transcription mix, Centrifuge 10 seconds in a microcentrifuge. • (d) Anneal in a heat block at 37° C. for 15 min, 85° C. for 5 sec, 4° C. save on S100™ Thermal Cycler. • (e) Aliquot the cDNA sample and store at −20° C.\n• (a) Make qPCR reaction mixture in one tube based on assay number and replicas. • (b) Prepare primers and master mix mixture according to manufacturer's instructions. And aliquot 9 μL of mixture into each well of the 384 qPCR plate. • (c) Transfer 1 μL of cDNA into each well of a 384 qPCR plate which already contain 9 μL of mixture. Briefly centrifuge the plate. • (d) Seal the plate • (e) Mix thoroughly, spin briefly • (f) Run the PCR Reaction • (g) Place the reaction plate in the instrument. • (h) Set the Applied Biosystems ViiA™ 7 cycling conditions as in Table 6.\nData were expressed as mean±SD. The 2-ΔΔCT method was used to analyze the mRNA expression level. The results were normalized for RNA input using glyceraldehydes-3-phosphate dehydrogenase (GAPDH or other internal controls). Statistical analysis was performed using, one-way ANOVA followed if significant by post-hoc Dunnett test. […] The difference was considered significant when p<0.05"}, "[2]": {"test_system": "monocytes from PBMC, M1-to-M2 macrophage repolarization", "assay": "M1-to-M2 macrophage repolarization assay", "format": "cell-based, human", "source_text": "The purpose of this study was to evaluate the effects of lobeglitazone and other thiazolidinediones on M1-to-M2 macrophage repolarization. The test articles and vehicles used in this study were lobeglitazone sulfate, pioglitazone HCl, and rosiglitazone.\nM1-to-M2 macrophage repolarization assay timeline were as follows in Table 13.\nDrug concentrations tested in the M1 differentiation assay are as in Table 14.\n• (1) Isolate monocytes from PBMC using StemCell® monocyte isolation kit. • (2) Count cell and adjust the cell density to 0.5×10^6 cells/ml with fresh complete differentiation medium (add 10 μl M-CSF stock (100 μg/ml) 10 ml cell mixture to a final concentration of 50 ng/ml). • (3) Seed isolated monocyte 100 μL per well on 96-well plate. • (4) On day 4, add additional 100 μl medium containing M-CSF • (5) On day 6, add stimulator at 5× final concentration (200 μL medium in each well) to a final concentration of 50 ng/ml. • (6) On day 8, remove medium and replenish with 200 μL cytokine free medium, then add test compound (final concentration in μM) and incubate for 4 days. • (7) On day 12, add IL-4 and incubate for 2 days (add 50 μL of 100 ng/ml IL-4 to each well containing 200 μL medium to reach 20 ng/ml). • (8) On day 14, spin down the plates at 300×g for 5 min and collect the supernatant for cytokine quantification. • (9) M1 and M2 associated macrophage cytokines of interest are as follows in Table 15.\nThe cells are then collected for flow analysis of viability/CD11c/CD163/CD206.\nCell surface marker CD163, CD11c, and CD206 were applied to characterize M2 repolarization via flow cytometry. Controls included No stain and staining with all surface marker antibodies to confirm the optimization of gating strategy."}, "[3]": {"conditions": "0.36 mg/kg PO QD 10 days, vs model"}, "[4]": {"conditions": "1.20 mg/kg PO QD 10 days, vs model"}, "[5]": {"conditions": "3.61 mg/kg PO QD 10 days, vs model"}}, "data": [{"smiles": "COc1ccc(Oc2cc(N(C)CCOc3ccc(CC4SC(=O)NC4=O)cc3)ncn2)cc1", "note": "(stereo not shown) [lobeglitazone, 5-(4-(2-((6-(4-Methoxyphenoxy)pyrimidin-4-yl)(methyl)amino)ethoxy)benzyl)thiazolidine-2,4-dione]", "values": [{"measurement": "CCL2 gene expression levels in colon", "setting": "[1]; [3]", "result": "led to decreases"}, {"measurement": "IL-1B gene expression levels in colon", "setting": "[1]; [3]", "result": "significantly decreased"}, {"measurement": "TNF-α gene expression levels in colon", "setting": "[1]; [3]", "result": "significantly decreased"}, {"measurement": "CCL2 gene expression levels in colon", "setting": "[1]; [4]", "result": "led to decreases"}, {"measurement": "IL-1B gene expression levels in colon", "setting": "[1]; [4]", "result": "significantly decreased"}, {"measurement": "TNF-α gene expression levels in colon", "setting": "[1]; [4]", "result": "significantly decreased"}, {"measurement": "CCL2 gene expression levels in colon", "setting": "[1]; [5]", "result": "significantly decreased"}, {"measurement": "IL-1β gene expression levels in colon", "setting": "[1]; [5]", "result": "did not change"}, {"measurement": "TNF-α gene expression levels in colon", "setting": "[1]; [5]", "result": "didn't show obvious changes"}, {"measurement": "IL-10 gene expression levels in colon", "setting": "[1]; lobeglitazone groups (0.36, 1.20, 3.61 mg/kg PO QD 10 days)", "result": "did not change significantly"}, {"measurement": "GI inflammation, as evidenced by the gene expression data", "setting": "[1]; mouse DSS model, 0.36 and 1.20, and 3.61 mg/kg", "result": "significantly decreased"}, {"measurement": "concentration at which M1-to-M2 repolarization was promoted (M2 macrophage surface markers, flow cytometry)", "setting": "[2]; CD163, CD11c, CD206, lowest concentration with effect", "result": "~0.05", "unit": "µM"}, {"measurement": "concentration showing remarkable promotion of MDC expression", "setting": "[2]; cytokine analysis (MSD), day 14 supernatant", "result": 0.1, "unit": "µM"}]}]}
